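Compound exposure: 48 hours, 5 concentrations, 96-well plates. GI50 marks 50% less growth.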 Active and inactive are the calls of the source. Cut-off read from the data, not from the text of the source: active = GI50 up to about 1.1 µM and inactive = higher.
What was measured:
Test in all cases: DTP human tumour cell line panel, 48 h
U-251 = test system: U-251
SR = test system: SR
SF-539 = test system: SF-539
Hs-578T = test system: Hs-578T
HOP-92 = test system: HOP-92
HOP-62 = test system: HOP-62
A498 = test system: A498
HCC 2998 = test system: HCC 2998
CAKI-1 = test system: CAKI-1
NCI-H522 = test system: NCI-H522
NCI/ADR-RES = test system: NCI/ADR-RES
XF498 = test system: XF498
NCI-H226 = test system: NCI-H226
OVCAR-5 = test system: OVCAR-5
A549 = test system: A549
OVCAR-3 = test system: OVCAR-3
HCT-116 = test system: HCT-116
COLO 205 = test system: COLO 205
BT-549 = test system: BT-549
SF-268 = test system: SF-268

## CCN(CC)CC(=O)O[C@]1(CC)C(=O)OCc2c1cc1n(c2=O)Cc2cc3ccccc3nc2-1
U-251
  GI50: < 10 nM (active)
SR
  GI50: < 10 nM (active)
SF-539
  GI50: < 13.9 nM (active)
Hs-578T
  GI50: 3210 nM (inactive)
HOP-92
  GI50: 211 nM (active)
HOP-62
  GI50: < 10 nM (active)
A498
  GI50: 58.3 nM (active)
HCC 2998
  GI50: 149 nM (active)
CAKI-1
  GI50: < 10 nM (active)
NCI-H522
  GI50: 24.7 nM (active)
NCI/ADR-RES
  GI50: < 10 nM (active)
XF498
  GI50: 200 nM (active)
NCI-H226
  GI50: 20.9 nM (active)
OVCAR-5
  GI50: 88.5 nM (active)
A549
  GI50: 23.7 nM (active)
OVCAR-3
  GI50: 219 nM (active)
HCT-116
  GI50: 30.7 nM (active)
COLO 205
  GI50: 209 nM (active)
BT-549
  GI50: 41.3 nM (active)
SF-268
  GI50: < 12 nM (active)

## CCOC(=O)c1[nH]c(COC(C)=O)c(CCCOC(C)=O)c1CCCOC(C)=O
U-251
  GI50: > 100000 nM (inactive)
SR
  GI50: > 100000 nM (inactive)
SF-539
  GI50: > 100000 nM (inactive)
HOP-92
  GI50: > 100000 nM (inactive)
HOP-62
  GI50: > 100000 nM (inactive)
A498
  GI50: > 100000 nM (inactive)
HCC 2998
  GI50: > 100000 nM (inactive)
CAKI-1
  GI50: > 100000 nM (inactive)
NCI-H522
  GI50: 23000 nM (inactive)
XF498
  GI50: > 100000 nM (inactive)
NCI-H226
  GI50: > 100000 nM (inactive)
OVCAR-5
  GI50: > 100000 nM (inactive)
A549
  GI50: > 100000 nM (inactive)
OVCAR-3
  GI50: > 100000 nM (inactive)
HCT-116
  GI50: > 100000 nM (inactive)
COLO 205
  GI50: > 100000 nM (inactive)
SF-268
  GI50: > 100000 nM (inactive)

## N#Cc1cc([N+](=O)[O-])ccc1NC(=O)/C(=N\NC(=O)c1ccncc1)C(c1cnc2ccc([N+](=O)[O-])cc2n1)[N+](=O)[O-] (configuration not stated)
U-251
  GI50: 2150 nM (inactive)
SR
  GI50: 4240 nM (inactive)
SF-539
  GI50: 2070 nM (inactive)
Hs-578T
  GI50: 2260 nM (inactive)
HOP-92
  GI50: 9180 nM (inactive)
HOP-62
  GI50: 2810 nM (inactive)
A498
  GI50: 8490 nM (inactive)
HCC 2998
  GI50: 9270 nM (inactive)
CAKI-1
  GI50: 5980 nM (inactive)
NCI-H522
  GI50: 1800 nM (inactive)
NCI/ADR-RES
  GI50: 6410 nM (inactive)
XF498
  GI50: 1690 nM (inactive)
NCI-H226
  GI50: 2450 nM (inactive)
OVCAR-5
  GI50: 9400 nM (inactive)
A549
  GI50: 3640 nM (inactive)
OVCAR-3
  GI50: 1640 nM (inactive)
HCT-116
  GI50: 2430 nM (inactive)
COLO 205
  GI50: 5690 nM (inactive)
BT-549
  GI50: 1850 nM (inactive)
SF-268
  GI50: 2860 nM (inactive)

## COc1ccc(/C(C)=N/NC(N)=S)c(OC)c1
U-251
  GI50: 49100 nM (inactive)
SR
  GI50: > 100000 nM (inactive)
SF-539
  GI50: > 100000 nM (inactive)
HOP-92
  GI50: > 100000 nM (inactive)
HOP-62
  GI50: > 100000 nM (inactive)
A498
  GI50: > 100000 nM (inactive)
HCC 2998
  GI50: > 100000 nM (inactive)
CAKI-1
  GI50: > 100000 nM (inactive)
NCI-H522
  GI50: 18400 nM (inactive)
XF498
  GI50: > 100000 nM (inactive)
NCI-H226
  GI50: > 100000 nM (inactive)
OVCAR-5
  GI50: > 100000 nM (inactive)
A549
  GI50: > 100000 nM (inactive)
OVCAR-3
  GI50: > 100000 nM (inactive)
HCT-116
  GI50: > 100000 nM (inactive)
COLO 205
  GI50: > 100000 nM (inactive)
SF-268
  GI50: > 100000 nM (inactive)

## O=c1cc(-c2ccccc2F)[nH]c2cc3c(cc12)OCO3
U-251
  GI50: 99.5 nM (active)
SR
  GI50: 14.7 nM (active)
SF-539
  GI50: 70.2 nM (active)
Hs-578T
  GI50: 72.8 nM (active)
HOP-92
  GI50: 212 nM (active)
HOP-62
  GI50: 190 nM (active)
A498
  GI50: 72.4 nM (active)
HCC 2998
  GI50: 107 nM (active)
NCI-H522
  GI50: 40.2 nM (active)
NCI/ADR-RES
  GI50: 35 nM (active)
XF498
  GI50: 1500 nM (inactive)
NCI-H226
  GI50: 184 nM (active)
OVCAR-5
  GI50: 1310 nM (inactive)
A549
  GI50: 204 nM (active)
OVCAR-3
  GI50: 34.1 nM (active)
HCT-116
  GI50: 48.9 nM (active)
COLO 205
  GI50: 51.2 nM (active)
SF-268
  GI50: 504 nM (active)
